Results from US20040254173A1, “Modulation of dopamine responses with substituted (S)-2,3-benzodiazepines” (priority 2003, published 2004).

Tests used:
aggression in mice = conditions: Ito 1981; cited from earlier work
[1] = test system: muricide (mouse killing behavior) in rats; conditions: Ito 1981; cited from earlier work
[2] = test system: anti-noradrenergic effects; conditions: Ito 1981; cited from earlier work
narcosis = conditions: mice; U.S. Pat. No. 4,322,346; cited from earlier work
[3] = test system: apomorphine-induced hypothermia, stereotypies and climbing; assay: Low Dose Apomorphine Test in the mouse; type: in vivo; conditions: for STEREOTYPY (intensity score), 20 min after apomorphine, mean ± s.e.m. / STEREOTYPY (intensity score), 50 min after apomorphine, mean ± s.e.m.: 4 point scale (0-3); for CLIMBING (No. of mice), 20 minutes after apomorphine / CLIMBING (No. of mice), 50 minutes after apomorphine: 6 mice per group; for Rectal Temperature, 30 min after apomorphine, mean ± s.e.m. / Rectal Temperature, 60 min after apomorphine, mean ± s.e.m. / Rectal Temperature, before apomorphine, mean ± s.e.m. / effect on apomorphine-induced hypothermia: mouse; for Rectal Temperature, 30 min after apomorphine, mean change from control / Rectal Temperature, 60 min after apomorphine, mean change from control / STEREOTYPY (intensity score), 20 min after apomorphine, mean change from control / STEREOTYPY (intensity score), 50 min after apomorphine, mean change from control: vs vehicle
Description: Racemic tofisopam, (R)-tofisopam and (S)-tofisopam were investigated in the Low Dose Apomorphine Test in the mouse to evaluate their pro- or anti-dopaminergic activity following intraperitoneal (i.p.) administration of apomorphine. Apomorphine, at a low dose, induces hypothermia, stereotypies and climbing. All three of these symptoms are potentiated by dopaminergic agonists and antagonized by dopamine antagonists, such as classical neuroleptics. The Low Dose Apomorphine Test, thus serves to detect pro- or antidopaminergic activity. The test was performed according to the protocols described by Chermat and Poncelet. See, Chermat R., Poncelet M., “Antagonisme des redressements, des stéréotypies et de l'hypotheimie induits par 1 ou 16 mg.kg-1 d'apomorphine,” J. Pharmacol., 14, 93-97, 1983.
Male mice of Rj: NMRI strain, 23-26 g body weight range were supplied by Elevage Janvier, 53940 Le Genest-Saint-Isle, France. The animals were delivered to the laboratory at least 3 days before the experiment and, upon arrival, were housed 10 per cage in macrolon cages (25×19×13 cm) containing wood shavings (Litalabo-SPPS, 95100 Argenteuil, France) with free access to food (UAR 113-UAR, 91360 Epinay-sur-Orge, France) and tap water (i.e. non-fasted) until tested. The animal house was maintained under artificial lighting (12 hours) between 7.00 and 19.00 in a controlled ambient temperature of 21±1° C., and relative humidity maintained at 40-70%.
The different treatments were equally distributed between the animals. During the experiment, each animal within a cage received the same treatment. Animals within a cage were individually marked on the tail with an indelible pen.
The experiment was conducted blind with treatment vials labeled A, B, C etc., according to a standardized coding procedure. The evaluation of the different treatments was balanced over time by testing successive series of individual animals from each treatment group in a fixed rotation (A, B, C, etc.). Animals were sacrificed at the end of the experiment by exposure to CO2.
Three compounds, racemic tofisopam, (R)-tofisopam and (S)-tofisopam were tested in the Low Dose Apomorphine Test. Each of these three compounds was dosed as a dispersion in 0.2% hydroxypropylmethylcellulose (HPMC) (Sigma), in sterile physiological saline (Laboratoire Aguettant).
Two reference standards were also dosed. Bromocriptine, methanesulfonate (Sigma), a known dopamine agonist, and haloperidol (Sigma), a known dopamine antagonist, were dispersed in 0.2% HPMC in sterile physiological saline.
Apomorphine hydrochloride, the dopamine mimetic employed in the assay, was dissolved in water for injectable preparation (Laboratoire Aguettant). Dosing: All of the dosed substances were administered in a volume of 10 ml/kg. The doses are expressed in mg/kg of supplied substance.
6 mice were studied per group. The test was performed blind.
Racemic tofisopam, (R)-tofisopam and (S)-tofisopam were administered at doses of 16, 32 and 64 mg/kg, administered intraperitonealy (i.p.), 30 minutes prior to administration of apomorphine.
The rectal temperature of the mice was measured prior to apomorphine dosing using a rectal probe (Physitemp Instruments Digital Laboratory Thermometer Model BAT-12). The mice were then placed in individual Plexiglas cages (10×6×4 cm) attached with the opening against a vertical wire grid.
The mice were then injected subcutaneously (s.c.) with apomorphine (1 mg/kg). Rectal temperature was measured 30 and 60 minutes after the injection of apomorphine.
The intensity of stereotypies (sniffing, licking, gnawing), were scored at 20 minutes and 50 minutes after injection of apomorphine on a 4 point scale (0-3). The presence (1) or absence (0) of climbing against the wire grid wall, were also assessed 20 and 50 minutes after injection of apomorphine.
The reference standards bromocriptine (16 mg/kg) and haloperidol (0.5 mg/kg), were administered under the same experimental conditions.

[4] = 0.5 mg/kg, before apomorphine 1 mg/kg s.c.
[5] = 16 mg/kg i.p. 30 min before apomorphine 1 mg/kg s.c.

In the case of `CCC1C(C)=NN=C(c2ccc(OC)c(OC)c2)c2cc(OC)c(O)cc21` (stereo not drawn) [1-(3,4-Dimethoxyphenyl)-4-methyl-5-ethyl-7-hydroxy-8-methoxy-5H-2,3-benzodiazepine], the “inhibition of aggression in mice” value (aggression in mice) is given as 0%, the inhibition of muricide [1] is given as 20% and the antinoradrenergic effect [2] is given as “no antinoradrenergic effect”.
For `CCC1C(C)=NN=C(c2ccc(O)c(OC)c2)c2cc(OC)c(OC)cc21` (stereo not drawn) [1-(3-Methoxy-4-hydroxyphenyl)-4-methyl-5-ethyl-7,8-dimethoxy-5H-2,3-benzodiazepine], the “inhibition of aggression in mice” value (aggression in mice) is given as 0%, the inhibition of muricide [1] is given as 0% and the antinoradrenergic effect [2] is given as “a measurable antinoradrenergic effect”. For the same compound, the narcosis-potentiating activity (narcosis) was “narcosis-potentiating activity”.
In the case of `CCC1C(C)=NN=C(c2ccc(O)c(OC)c2)c2cc(OC)c(O)cc21` (stereo not drawn) [1-(3-Methoxy-4-hydroxyphenyl)-4-methyl-5-ethyl-7-hydroxy-8-methoxy-5H-2,3-benzodiazepine], the “inhibition of aggression in mice” value (aggression in mice) is given as 28.6%, the inhibition of muricide [1] is given as 20% and the antinoradrenergic effect [2] is given as “a measurable antinoradrenergic effect”.
In the case of `O=C(CCCN1CCC(O)(c2ccc(Cl)cc2)CC1)c1ccc(F)cc1` [Haloperidol, haloperidol], the “effect on apomorphine-induced stereotypies and climbing as well as hypothermia” value ([3]; 0.5 mg/kg) is reported as “significantly antagonized”, the “STEREOTYPY (intensity score), 20 min after apomorphine, mean ± s.e.m.” value [3, 4] is reported as 0.0 ± 0.0 and the “STEREOTYPY (intensity score), 50 min after apomorphine, mean ± s.e.m.” value [3, 4] is reported as 0.0 ± 0.0. The “CLIMBING (No. of mice), 20 minutes after apomorphine” value [3, 4] was 0+ No. of mice, the “CLIMBING (No. of mice), 50 minutes after apomorphine” value [3, 4] was 1 No. of mice and the “Rectal Temperature, 30 min after apomorphine, mean ± s.e.m.” value [3, 4] was 37.0 ± 0.1 °C. For the same compound, the “Rectal Temperature, 60 min after apomorphine, mean ± s.e.m.” value [3, 4] was 37.7 ± 0.1 °C, the “Rectal Temperature, 30 min after apomorphine, mean change from control” value [3, 4] was “+1.9 °C” and the “Rectal Temperature, 60 min after apomorphine, mean change from control” value [3, 4] was “+1.0 °C”. The “STEREOTYPY (intensity score), 20 min after apomorphine, mean change from control” value [3, 4] was −2.2, the “STEREOTYPY (intensity score), 50 min after apomorphine, mean change from control” value [3, 4] was −1.0 and the “Rectal Temperature, before apomorphine, mean ± s.e.m.” value ([3]; 0.5 mg/kg) was 37.3 ± 0.1 °C. The “effect on apomorphine-induced hypothermia” value ([3]; 0.5 mg/kg) was “significantly antagonized”.
With Bromocriptine, methanesulfonate the “effect on apomorphine-induced stereotypies or climbing” value ([3]; 16 mg/kg) was “did not significantly affect”, the “STEREOTYPY (intensity score), 20 min after apomorphine, mean ± s.e.m.” value [3, 5] was 2.7 ± 0.2 and the “STEREOTYPY (intensity score), 50 min after apomorphine, mean ± s.e.m.” value [3, 5] was 1.0 ± 0.4. The “CLIMBING (No. of mice), 20 minutes after apomorphine” value [3, 5] was 6 No. of mice, the “CLIMBING (No. of mice), 50 minutes after apomorphine” value [3, 5] was 2 No. of mice and the “Rectal Temperature, 30 min after apomorphine, mean ± s.e.m.” value [3, 5] was 34.4 ± 0.4 °C. For the same compound, the “Rectal Temperature, 60 min after apomorphine, mean ± s.e.m.” value [3, 5] was 35.0 ± 0.5 °C, the “Rectal Temperature, 30 min after apomorphine, mean change from control” value [3, 5] was −0.7 °C and the “Rectal Temperature, 60 min after apomorphine, mean change from control” value [3, 5] was −1.7 °C. For the same compound, the “STEREOTYPY (intensity score), 20 min after apomorphine, mean change from control” value [3, 5] was “+0.5”, the “STEREOTYPY (intensity score), 50 min after apomorphine, mean change from control” value [3, 5] was 0.0 and the “Rectal Temperature, before apomorphine, mean ± s.e.m.” value ([3]; 16 mg/kg i.p., 30 min after test substance) was 37.2 ± 0.2 °C. The “effect on apomorphine-induced hypothermia” value ([3]; 16 mg/kg) was “significantly potentiated”.
